Earlier results, collected in patent publication US20230255882A1, “LONG-LASTING RESORBABLE SUBCUTANEOUS IMPLANT WITH SUSTAINED RELEASE OF PRE-CONCENTRATED PHARMACOLOGICALLY ACTIVE SUBSTANCE IN POLYMER FOR THE TREATMENT OF PARKINSONS DISEASE” (priority 2020, published 2023).

Tested on: Parkinson's disease
Conditions: intramuscular injection, 25 mg twice a week

NC(=O)C1=CN([C@@H]2O[C@H](COP(=O)(O)OP(=O)(O)OC[C@H]3O[C@@H](n4cnc5c(N)ncnc54)[C@H](OP(=O)(O)O)[C@@H]3O)[C@@H](O)[C@H]2O)C=CC1 [NADPH]
motor symptoms: significant improvement in motor symptoms
